Experimental data taken from patent US7651978B2, “Selective herbicides based on a substituted phenylsulphonylaminocarbonyl-triazolinone” (Arysta LifeScience North America, LLC, priority 1998, dated 2010).

Assays:
Alopecurus [1] = assay: Post-emergence test/greenhouse; format: in vivo; settings: 504 h, after three weeks, read-out: degree of damage, Alopecurus; for pest or weed control at 250 g/ha: 250 g ai./ha; for pest or weed control at 60 g/ha: 60 g ai./ha
Description: (§1) Post-Emergence Test/Greenhouse [table] To produce a suitable preparation of active compound, 1 part by weight of active compound is mixed with the stated amount of solvent, the stated amount of emulsifier is added and the concentrate is diluted with water to the desired concentration. Test plants which have a height of 5-15 cm are sprayed with the preparation of active compound such that the particular amounts of active compound desired are applied per unit area. The concentration of the spray liquor is chosen so that the particular amounts of active compound desired are applied in 500 ml of water/ha. After three weeks, the degree of damage to the plants is assessed in % damage in comparison to the development of the untreated control. The figures denote: • 0%=no effect (like untreated control) • 100%=total destruction

Avena [2] = assay: Post-emergence test/greenhouse; format: in vivo; settings: after three weeks
Description: as §1

Setaria [3] = assay: Post-emergence test/greenhouse; format: in vivo; settings: after three weeks
Description: as §1

Alopecurus [4] = assay: Pre-emergence test/greenhouse; format: in vivo; settings: 504 h, after three weeks, read-out: degree of damage, Alopecurus; for pest or weed control at 30 g/ha: 30 g of ai./ha
Description: (§2) Pre-Emergence Test/Greenhouse Solvent: 5 parts by weight of acetone Emulsifier: 1 part by weight of alkylaryl polyglycol ether To produce a suitable preparation of active compound, 1 part by weight of active compound is mixed with the stated amount of solvent, the stated amount of emulsifier is added and the concentrate is diluted with water to the desired concentration. Seeds of the test plants are sown in normal soil. After about 24 hours, the soil is sprayed with the preparation of active compound such that the particular amount of active compound desired is applied per unit area. The concentration of the spray liquor is chosen so that the particular amount of active compound desired is applied in 500 ml of water per hectare. After three weeks, the degree of damage to the plants is assessed in % damage in comparison to the development of the untreated control. The figures denote: • 0%=no effect (like untreated control) • 100%=total destruction

Avena [5] = assay: Pre-emergence test/greenhouse; format: in vivo; settings: 504 h, after three weeks, read-out: degree of damage, Avena; for pest or weed control at 30 g/ha: 30 g of ai./ha
Description: as §2

Bromus [6] = assay: Pre-emergence test/greenhouse; format: in vivo; settings: 30 g of ai./ha, after three weeks
Description: as §2

Digitaria = assay: Pre-emergence test/greenhouse; format: in vivo; settings: 30 g of ai./ha, after three weeks
Description: as §2

Echinochloa = assay: Pre-emergence test/greenhouse; format: in vivo; settings: 30 g of ai./ha, after three weeks
Description: as §2

Matricaria = assay: Pre-emergence test/greenhouse; format: in vivo; settings: 30 g of ai./ha, after three weeks
Description: as §2

Polygonum = assay: Pre-emergence test/greenhouse; format: in vivo; settings: 30 g of ai./ha, after three weeks
Description: as §2

Setaria [7] = assay: Pre-emergence test/greenhouse; format: in vivo; settings: after three weeks
Description: as §2

Wheat [8] = assay: Pre-emergence test/greenhouse; format: in vivo; settings: pre-emergence; for degree of damage, Wheat: 30 g of ai./ha, after three weeks, 0%=no effect, 100%=total destruction
Description: as §2

Agropyron = assay: Post-emergence test/greenhouse; format: in vivo; settings: 60 g ai./ha, after three weeks
Description: as §1

Bromus [9] = assay: Post-emergence test/greenhouse; format: in vivo; settings: 60 g ai./ha, after three weeks
Description: as §1

Lolium = assay: Post-emergence test/greenhouse; format: in vivo; settings: 60 g ai./ha, after three weeks
Description: as §1

Veronica = assay: Post-emergence test/greenhouse; format: in vivo; settings: 60 g ai./ha, after three weeks
Description: as §1

Wheat [10] = assay: Post-emergence test/greenhouse; format: in vivo; settings: post-emergence, 60 g ai./ha, after three weeks; 0%=no effect, 100%=total destruction
Description: as §1

[11] = tested on: weeds, such as Alopecurus, Avena, Bromus, Digitaria, Echinochloa, Matricaria, Polygonum and Setaria; assay: Pre-emergence test/greenhouse, summary over weeds; format: in vivo; settings: cf. Table A1
Description: Pre-Emergence Test/Greenhouse Solvent: 5 parts by weight of acetone Emulsifier: 1 part by weight of alkylaryl polyglycol ether To produce a suitable preparation of active compound, 1 part by weight of active compound is mixed with the stated amount of solvent, the stated amount of emulsifier is added and the concentrate is diluted with water to the desired concentration. Seeds of the test plants are sown in normal soil. After about 24 hours, the soil is sprayed with the preparation of active compound such that the particular amount of active compound desired is applied per unit area. The concentration of the spray liquor is chosen so that the particular amount of active compound desired is applied in 500 ml of water per hectare. After three weeks, the degree of damage to the plants is assessed in % damage in comparison to the development of the untreated control. […] Table A1). The considerable superiority of (I)-Na-salt over the comparative compound (G) is shown in Table A2 [“ai.”=“active ingredient”].

[12] = tested on: weeds, such as Agropyron, Alopecurus, Avena, Bromus, Lolium, Setaria and Veronica; assay: Post-emergence test/greenhouse, summary over weeds; format: in vivo; settings: cf. Table B1
Description: as §1, with “[…] A considerable superiority of (I)-Na-salt (at 125 g/ha) over the comparative compounds (G) and (H) (in each case at 250 g/ha!) is shown in Table B2.” for “The figures denote: • 0%=no effect (like untreated control) • 100%=total destruction”

Avena fatua = assay: Post-emergence tests/outdoors (Example C, Canada); format: in vivo; settings: outdoors, 30 g of a.i./ha + SAS (Canplus 411), 70 WP, 6 tests
Description: (§3) Post-Emergence Tests/Outdoors In addition to the comparative compounds (B) and (D), the sodium salt of the compound of the formula (I) was tested under outdoor conditions in the main cultivation areas of summer wheat in Canada against economically important weeds. The small-plot experiments were carried out on cultivated land under agricultural use. Areas with particularly extensive weed growth were chosen preferably. The active compounds were applied across the area by the spray method, with an average droplet size. To produce a useful preparation of active compound, the active compounds were formulated as 70 WP (70% w/w water-dispersible powder) and applied with customary amounts of water. Wetting of the plants was improved by addition of a surface-active substance (SAS) in the concentrations recommended by the respective manufacturer. To assess the crop compatibility, from 1 to 8 weeks after the treatment, plant growth inhibitions or […] of the leaf area were assessed in % damage in comparison to the development of the untreated control. At different intervals after the treatment, the herbicidal activity was assessed as % reduction in comparison to the untreated control, based on the weed development. The figures denote: • 0%=no damage of the crops or no herbicidal effect, • 100%=total destruction of the crops or the weeds.

Fallopia convolvulus = assay: Post-emergence tests/outdoors (Example C, Canada); format: in vivo; settings: outdoors, 30 g of a.i./ha + SAS (Canplus 411), 70 WP, 5 tests
Description: as §3

Setaria viridis = assay: Post-emergence tests/outdoors (Example C, Canada); format: in vivo; settings: outdoors, 30 g of a.i./ha + SAS (Canplus 411), 70 WP, 5 tests
Description: as §3

Sinapis arvensis = assay: Post-emergence tests/outdoors (Example C, Canada); format: in vivo; settings: outdoors, 30 g of a.i./ha + SAS (Canplus 411), 70 WP, 5 tests
Description: as §3

Thlaspi arvense = assay: Post-emergence tests/outdoors (Example C, Canada); format: in vivo; settings: outdoors, 30 g of a.i./ha + SAS (Canplus 411), 70 WP, 3 tests
Description: as §3

wheat [13] = assay: Post-emergence tests/outdoors (Example C, Canada), crop damage; format: in vivo, summer wheat; settings: outdoors, 30 g of a.i./ha + SAS (Canplus 411), 70 WP, 9 tests, 1 to 8 weeks after treatment
Description: as §3

| Compound | pest or weed control at 250 g/ha (Alopecurus [1]) | degree of damage, Avena (Avena [2]; 250 g ai./ha) | pest or weed control at 30 g/ha (Alopecurus [4]) | pest or weed control at 30 g/ha (Avena [5]) | degree of damage, Bromus (Bromus [6]) | degree of damage, Digitaria (Digitaria) | degree of damage, Echinochloa (Echinochloa) | degree of damage, Matricaria (Matricaria) | degree of damage, Polygonum (Polygonum) | degree of damage, Setaria (Setaria [7]; 30 g of ai./ha) | degree of damage, Wheat (Wheat [8]) | degree of damage, Agropyron (Agropyron) | pest or weed control at 60 g/ha (Alopecurus [1]) | degree of damage, Avena (Avena [2]; 60 g ai./ha) | degree of damage, Bromus (Bromus [9]) | degree of damage, Lolium (Lolium) | degree of damage, Veronica (Veronica) | degree of damage, Wheat (Wheat [10]) | herbicidal activity (in words, compared with (I)-Na-salt) [11] | herbicidal activity (in words, compared with (I)-Na-salt) [12] | further results |
| --- | --- | --- | --- | --- | --- | --- | --- | --- | --- | --- | --- | --- | --- | --- | --- | --- | --- | --- | --- | --- | --- |
| COc1nn(C(=O)NS(=O)(=O)c2ccccc2OC(F)(F)C(F)(F)F)c(=O)n1C [(H), 2-[2-(Pentafluoroethoxy)-phenylsulphonylaminocarbonyl]-4-methyl-5-methoxy-2,4-dihydro-3H-1,2,4-triazol-3-one] | 40% | 80% |  |  |  |  |  |  |  |  |  |  |  |  |  |  |  |  |  |  | degree of damage, Setaria (Setaria [3]; 250 g ai./ha): 20% |
| COc1nn(C(=O)NS(=O)(=O)c2ccccc2OC(F)F)c(=O)n1C [(E), 2-(2-Difluoromethoxy-phenylsulphonylaminocarbonyl)-4-methyl-5-methoxy-2,4-dihydro-3H-1,2,4-triazol-3-one] |  |  | 50% | 30% | 0% | 40% | 30% | 0% | 60% | 80% | 0% | 60% | 20% | 70% | 0% | 20% | 30% | 0% | considerably weaker herbicidal activity | considerably weaker herbicidal activity |  |
| CCOc1nn(C(=O)NS(=O)(=O)c2ccccc2OC(F)(F)F)c(=O)n1C [(B), 2-(2-Trifluoromethoxy-phenylsulphonylaminocarbonyl)-4-methyl-5-ethoxy-2,4-dihydro-3H-1,2,4-triazol-3-one] |  |  | 70% | 80% |  |  |  |  | 80% |  | 50% |  | 40% |  |  | 70% | 70% | 0% |  | considerably weaker herbicidal activity | compatibility with crop plants (wheat), in words (Wheat [8]; cf. Table A1): not compatible with wheat; herbicidal effect (%), Avena fatua (Avena fatua): 69%; herbicidal effect (%), Fallopia convolvulus (Fallopia convolvulus): 71%; herbicidal effect (%), Setaria viridis (Setaria viridis): 95%; herbicidal effect (%), Sinapis arvensis (Sinapis arvensis): 97%; herbicidal effect (%), Thlaspi arvense (Thlaspi arvense): 97%; Crop damage (wheat) (wheat [13]): 5% |
| COn1c(C)nn(C(=O)NS(=O)(=O)c2ccccc2OC(F)(F)F)c1=O [(C), 2-(2-Trifluoromethoxy-phenylsulphonylaminocarbonyl)-4-methoxy-5-methyl-2,4-dihydro-3H-1,2,4-triazol-3-one] |  |  | 0% | 0% | 0% | 0% | 0% | 0% | 0% | 0% | 0% | 0% | 0% | 0% | 0% | 0% | 0% | 0% | considerably weaker herbicidal activity | considerably weaker herbicidal activity | degree of damage, Setaria (Setaria [3]; 60 g ai./ha): 0% |
| COc1nn(C(=O)NS(=O)(=O)c2ccccc2OC(F)(F)C(F)F)c(=O)n1C [(G), 2-[2-(1,1,2,2-Tetrafluoroethoxy)-phenylsulphonylaminocarbonyl]-4-methyl-5-methoxy-2,4-dihydro-3H-1,2,4-triazol-3-one] | 30% | 0% |  |  |  |  |  |  |  |  |  |  |  |  |  |  |  |  |  |  | pest or weed control at 250 g/ha (Alopecurus [4]; 250 g ai./ha): 50%; pest or weed control at 250 g/ha (Avena [5]; 250 g ai./ha): 0%; degree of damage, Setaria (Setaria [7]; 250 g ai./ha): 50%; degree of damage, Setaria (Setaria [3]; 250 g ai./ha): 30% |
| CCn1c(OC)nn(C(=O)NS(=O)(=O)c2ccccc2OC(F)(F)F)c1=O [(A), 2-(2-Trifluoromethoxy-phenylsulphonylaminocarbonyl)-4-ethyl-5-methoxy-2,4-dihydro-3H-1,2,4-triazol-3-one] |  |  | 20% | 0% | 40% | 0% | 50% | 0% | 0% | 60% | 0% | 0% | 0% | 0% | 40% | 0% |  | 0% | considerably weaker herbicidal activity | considerably weaker herbicidal activity | degree of damage, Setaria (Setaria [3]; 60 g ai./ha): 40% |
